ChEMBL document CHEMBL1201862, “PubChem BioAssay data set” (2004)
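96-well plates; 48 h exposure; 5 concentrations. Endpoints by linear interpolation between flanking doses. Not reached: highest tested concentration assigned. The concentration for 50% growth inhibition is given as GI50.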 Calls of active or inactive are those of the source. Cut-off read from the data, not from the text of the source: active = GI50 up to about 1.1 µM and inactive = higher.

Columns and labels:
Test in all cases: NCI anticancer screen, dose series, 48 h
[1] = test system: OVCAR-5
[2] = test system: A498
[3] = test system: OVCAR-4
[4] = test system: NCI-H226
[5] = test system: TK-10
[6] = test system: SW-620
[7] = test system: NCI-H23
[8] = test system: MDA-MB-435
[9] = test system: SF-268
[10] = test system: HCT-116
[11] = test system: DU-145
[12] = test system: SK-MEL-5
[13] = test system: SNB-19
[14] = test system: LOX IMVI
[15] = test system: HOP-62
[16] = test system: OVCAR-3
[17] = test system: U-251
[18] = test system: SF-295
[19] = test system: SK-MEL-28
[20] = test system: KM12
[21] = test system: NCI-H460
[22] = test system: RXF 393
[23] = test system: SR
[24] = test system: EKVX
[25] = test system: Hs-578T
[26] = test system: COLO 205
[27] = test system: HCT-15
[28] = test system: UACC-257
[29] = test system: SF-539
[30] = test system: SN12C
[31] = test system: HT-29
[32] = test system: CCRF-CEM
[33] = test system: HCC 2998
[34] = test system: MOLT-4
[35] = test system: K562
[36] = test system: BT-549
[37] = test system: UO-31
[38] = test system: OVCAR-8
[39] = test system: RPMI-8226
[40] = test system: 786-0
[41] = test system: NCI/ADR-RES
[42] = test system: NCI-H522
[43] = test system: HOP-92
[44] = test system: ACHN
[45] = test system: A549
[46] = test system: PC-3
[47] = test system: IGROV-1
[48] = test system: MDA-N
[49] = test system: SNB-75
[50] = test system: MDA-MB-231
[51] = test system: HL-60
[52] = test system: Malme-3M
[53] = test system: CAKI-1
[54] = test system: MCF7

SMILES: O=[N+]([O-])c1ccc2c(c1)Sc1ccccc1N2CCCCCl
- GI50 [1]: > 100 µM (inactive)
- GI50 [2]: > 100 µM (inactive)
- GI50 [3]: 3.86 µM (inactive)
- GI50 [4]: > 100 µM (inactive)
- GI50 [5]: > 100 µM (inactive)
- GI50 [6]: > 100 µM (inactive)
- GI50 [7]: > 100 µM (inactive)
- GI50 [8]: > 100 µM (inactive)
- GI50 [9]: > 100 µM (inactive)
- GI50 [10]: > 100 µM (inactive)
- GI50 [11]: > 100 µM (inactive)
- GI50 [12]: > 100 µM (inactive)
- GI50 [13]: > 100 µM (inactive)
- GI50 [14]: > 100 µM (inactive)
- GI50 [15]: > 100 µM (inactive)
- GI50 [16]: > 100 µM (inactive)
- GI50 [17]: > 100 µM (inactive)
- GI50 [18]: > 100 µM (inactive)
- GI50 [19]: > 100 µM (inactive)
- GI50 [20]: > 100 µM (inactive)
- GI50 [21]: > 100 µM (inactive)
- GI50 [22]: > 100 µM (inactive)
- GI50 [23]: > 100 µM (inactive)
- GI50 [24]: > 100 µM (inactive)
- GI50 [25]: > 100 µM (inactive)
- GI50 [26]: > 100 µM (inactive)
- GI50 [27]: > 100 µM
- GI50 [28]: > 100 µM (inactive)
- GI50 [29]: > 100 µM (inactive)
- GI50 [30]: > 100 µM (inactive)
- GI50 [31]: > 100 µM (inactive)
- GI50 [32]: > 100 µM (inactive)
- GI50 [33]: > 100 µM (inactive)
- GI50 [34]: 87.9 µM (inactive)
- GI50 [35]: 70.6 µM (inactive)
- GI50 [36]: > 100 µM (inactive)
- GI50 [37]: > 100 µM (inactive)
- GI50 [38]: > 100 µM (inactive)
- GI50 [39]: > 100 µM (inactive)
- GI50 [40]: > 100 µM (inactive)
- GI50 [41]: > 100 µM (inactive)
- GI50 [42]: > 100 µM (inactive)
- GI50 [43]: 24.9 µM (inactive)
- GI50 [44]: > 100 µM (inactive)
- GI50 [45]: > 100 µM (inactive)
- GI50 [46]: > 100 µM (inactive)
- GI50 [47]: > 100 µM (inactive)
- GI50 [48]: > 100 µM (inactive)
- GI50 [49]: > 100 µM (inactive)
- GI50 [50]: > 100 µM (inactive)
- GI50 [51]: > 100 µM (inactive)
- GI50 [52]: > 10 µM (inactive)
- GI50 [53]: > 100 µM (inactive)
- GI50 [54]: > 100 µM (inactive)
